Read-outs that look alike come from different tables or passages of the source.

The target in assay [1] is T1, PKA catalytic domain (Homo sapiens, UniProt P17612).
T1 construct: using the PKA catalytic domain from Upstate Biotechnology (#14-440); purchased Upstate Biotechnology 14-440
The assay is described as follows: Measurement of PKA kinase inhibitory activity (IC50), 33P-ATP filter plate assay. It counts as biochemical. The method, then:
A final concentration of 1 nM enzyme is used in a buffer that includes 20 mM MOPS pH 7.2, 40 μM ATP/γ^33P-ATP and […] substrate. Compounds are added in dimethylsulphoxide (DMSO) solution to a final DMSO concentration of 2.5%. The reaction is allowed to proceed for 20 minutes before addition of excess orthophosphoric acid to quench activity. Unincorporated γ^33P-ATP is then separated from phosphorylated proteins on a Millipore MAPH filter plate. The plates are washed, scintillant is added and the plates are then subjected to counting on a Packard Topcount.

Assay [2] has as its target T2, PKB-PIF fusion protein (Homo sapiens, UniProt P31751).
T2 construct: PIF (fusion partner); made in house
The assay can be described thus: Measurement of PKB kinase inhibitory activity (IC50), 33P-ATP phosphocellulose filter assay. It counts as biochemical. How it is done: The inhibition of protein kinase B (PKB) activity by compounds can be determined essentially as described by Andjelkovic et al. (Mol. Cell. Biol. 19, 5061-5072 (1999)) but using a fusion protein described as PKB-PIF and described in full by Yang et al (Nature Structural Biology 9, 940-944 (2002)). […] A final concentration of 0.6 nM enzyme is used in a buffer that includes 20 mM MOPS pH 7.2, 30 μM ATP/γ^33P-ATP and 25 μM substrate.
Compounds are added in DMSO solution to a final DMSO concentration of 2.5%. The reaction is allowed to proceed for 20 minutes before addition of excess orthophosphoric acid to quench activity. The reaction mixture is transferred to a phosphocellulose filter plate where the peptide binds and the unused ATP is washed away. After washing, scintillant is added and the incorporated activity measured by scintillation counting.
The % inhibition of the PKB activity is calculated and plotted in order to determine the concentration of test compound required to inhibit 50% of the PKB activity (IC50).

The mark [3] stands for this setting: 1 nM enzyme, 40 μM ATP, 20 minutes, read-out: IC50, inhibition of PKA activity.
The mark [4] stands for this setting: 0.6 nM enzyme, 30 μM ATP, 25 μM AKTide-2T substrate, 20 minutes, read-out: IC50, inhibition of PKB activity.

T2 sequence (P31751 with tags, fused parts or gaps limits assumed): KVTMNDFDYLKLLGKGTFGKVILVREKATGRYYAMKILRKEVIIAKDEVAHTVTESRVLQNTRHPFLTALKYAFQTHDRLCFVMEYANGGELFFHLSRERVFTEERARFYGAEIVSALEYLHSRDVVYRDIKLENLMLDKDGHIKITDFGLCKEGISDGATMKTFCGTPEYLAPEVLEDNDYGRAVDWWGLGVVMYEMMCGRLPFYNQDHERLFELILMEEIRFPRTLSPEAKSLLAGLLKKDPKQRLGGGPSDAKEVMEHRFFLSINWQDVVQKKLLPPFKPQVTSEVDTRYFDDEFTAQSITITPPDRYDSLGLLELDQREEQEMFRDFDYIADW

As usually defined, the IC50 is the concentration that gives 50% inhibition. In the case of `NCC1(Cc2ccc(Cl)cc2)CCN(c2ncnc3[nH]ccc23)CC1` [Example 19, C-[4-(4-Chlorobenzyl)-1-(7H-pyrrolo[2,3-d]pyrimidin-4-yl)piperidin-4-yl]methylamine], the IC50 in assay [1] (setting [3]) and in assay [2] (setting [4]) was less than 10 µM throughout.
On to `NCC1(c2ccc(Cl)cc2)CCN(c2ncnc3[nH]c(=O)[nH]c23)CC1` [Example 20, 6-[4-Aminomethyl-4-(4-chlorophenyl)piperidin-1-yl]-7,9-dihydropurin-8-one], for which the IC50 in assay [1] (setting [3]) and in assay [2] (setting [4]) was less than 10 µM each time.
Consider `NC1(c2ccc(Cl)cc2)CCN(c2ncnc3[nH]ccc23)CC1` [Example 25, 4-(4-Chlorophenyl)-1-(7H-pyrrolo[2,3-d]pyrimidin-4-yl)piperidin-4-ylamine], for which the IC50 in assay [1] and in assay [2] was less than 10 µM each time.
Regarding `NCC1(c2cccc(Cl)c2)CCN(c2ncnc3[nH]ccc23)CC1` [Example 26, C-[4-(3-Chlorophenyl)-1-(7H-pyrrolo[2,3-d]pyrimidin-4-yl)piperidin-4-yl]methylamine], the IC50 in assay [1] (setting [3]) and in assay [2] (setting [4]) was less than 10 µM throughout.
`NCC1(c2ccc(Cl)c(Cl)c2)CCN(c2ncnc3[nH]ccc23)CC1` [Example 28, C-[4-(3,4-Dichlorophenyl)-1-(7H-pyrrolo[2,3-d]pyrimidin-4-yl)piperidin-4-yl]methylamine]: the half-maximal inhibitory concentration (IC50) in assay [1] (setting [3]) and in assay [2] (setting [4]) was less than 10 µM in each case.
On to `NCC1(c2ccc(OC(F)(F)F)cc2)CCN(c2ncnc3[nH]cnc23)CC1` [Example 31, C-[1-(9H-Purin-6-yl)-4-(4-trifluoromethoxyphenyl)piperidin-4-yl]methylamine], for which the IC50 in assay [1] (setting [3]) and in assay [2] (setting [4]) was less than 10 µM throughout.
Take `NCC1(c2ccc(C(F)(F)F)cc2)CCN(c2ncnc3[nH]ccc23)CC1` [Example 32, C-[1-(7H-Pyrrolo[2,3-d]pyrimidin-4-yl)-4-(4-trifluoromethylphenyl)piperidin-4-yl]methylamine]: the IC50 in assay [1] (setting [3]) and in assay [2] (setting [4]) was less than 10 µM each time.
`COc1ccc(C2(CN)CCN(c3ncnc4[nH]ccc34)CC2)cc1` [Example 38, C-[4-(4-Methoxyphenyl)-1-(7H-pyrrolo[2,3-d]pyrimidin-4-yl)piperidin-4-yl]methylamine]: the IC50 in assay [1] (setting [3]) and in assay [2] (setting [4]) was less than 10 µM in each case.
As to `NCC1(c2ccc(OCc3ccccc3)cc2)CCN(c2ncnc3[nH]ccc23)CC1` [Example 40, C-[4-(4-Benzyloxyphenyl)-1-(7H-pyrrolo[2,3-d]pyrimidin-4-yl)piperidin-4-yl]methylamine], the IC50 in assay [1] (setting [3]) and in assay [2] (setting [4]) was less than 10 µM throughout.
Consider `CNCC1(c2ccc(Cl)cc2)CCN(c2ncnc3[nH]ccc23)CC1` [Example 42, [4-(4-Chloro-phenyl)-1-(7H-pyrrolo[2,3-d]pyrimidin-4-yl)-piperidin-4-ylmethyl]-methyl-amine], for which the IC50 in assay [1] and in assay [2] was less than 10 µM in each case.
On to `CN(C)C1(Cc2ccc(Cl)cc2)CCN(c2ncnc3[nH]ccc23)CC1` [Example 44, [4-(4-Chlorobenzyl)-1-(7H-pyrrolo[2,3-d]pyrimidin-4-yl)-piperidin-4-yl]-dimethylamine], for which the IC50 in assay [1] (setting [3]) and in assay [2] (setting [4]) was less than 10 µM each time.

The record behind these values is patent US8809336B2, “Ortho-condensed pyridine and pyrimidine derivatives (e.g., purines) as protein kinases inhibitors” (Astex Therapeutics Limited, priority 2004, dated 2014).
